Results reported in BindingDB's records for doi:10.1074/jbc.M109.039511 (University of Florida, 2010).
pKi: −log10 of the molar value. Structures can show the parent of a compound that is named as a salt.

target: T1, Acid phosphatase (Francisella tularensis subsp. tularensis (strain SCHU S4 / Schu 4), UniProt Q5NIC0); assay: Inhibitor Screening Assay
T1 sequence (Q5NIC0 whole entry): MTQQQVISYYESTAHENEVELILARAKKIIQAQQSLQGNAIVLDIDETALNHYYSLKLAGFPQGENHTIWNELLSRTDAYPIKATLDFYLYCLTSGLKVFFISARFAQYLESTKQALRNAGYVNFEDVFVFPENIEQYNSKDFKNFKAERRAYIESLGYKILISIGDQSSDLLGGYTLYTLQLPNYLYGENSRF
Experimental: The inhibitor screening assays were performed in 96-well format with 1152 small molecules found in the Prestwick chemical library (Prestwick Chemical, France).

Structure (SMILES)	pKi
CC1(C)OC[C@@H]([C@H]2OC(=O)C(=O)C2O)O1 (stereo partly drawn) [(+)-5,6-O-Isopropylidene-L-ascorbic acid]	5.49
CCCCCCCCCCCCCCCC[N+](C)(C)CCN(Cc1ccc(OC)cc1)c1ncccn1 [SMR001233380]	6.23
OC[C@H](O)c1oc(O)c(O)c1O [ascorbic acid]	3.42
O=C1OC(C(O)CO)=C(O)C1OP(=O)(O)O [2-phospho-L-ascorbic acid]	6.49
O=c1c(O)c(-c2cc(O)c(O)c(O)c2)oc2cc(O)cc(O)c12	3.81
O=c1c(O)c(-c2ccc(O)cc2)oc2cc(O)cc(O)c12	3.72
COc1ccc(CC2c3cc(OC)c(OC)cc3CC[N+]2(C)CCC(=O)OCCCCCOC(=O)CC[N+]2(C)CCc3cc(OC)c(OC)cc3C2Cc2ccc(OC)c(OC)c2)cc1OC (stereo not drawn)	3.47
CCN(CC)CCNC(=O)c1ccc(N)cc1 [4-amino-N-[2-(diethylamino)ethyl]benzamide;hydrochloride]	4.83
